Patent publication US11149049B2, “Substituted nucleosides, nucleotides and analogs thereof” (JANSSEN BIOPHARMA, INC., priority 2017, dated 2021)
Like-named read-outs stand apart in the source and are kept apart here.

Key:
Huh-7.5 cells = assay: Cytotoxicity in the DENV assay, uninfected parallel cultures; settings: read-out: DENV CC50; uninfected Huh-7.5 parallel cultures
[1] = as above; settings: human
Human rhinovirus 1B = assay: Rhinovirus antiviral assay (HRV1B); format: cell-based; settings: Rhinovirus A, 96 h
[2] = test system: human β-coronavirus strain OC43; assay: Coronavirus antiviral assay (OC43); format: cell-based; settings: Betacoronavirus 1, OC43, 120 h; HeLa or MRC-5 cells, five days, CellTiter-Glo; read-out: OC43CoV EC50
Description: (§1) The human β-coronavirus strain OC43 was purchased from ATCC (Manassas, Va.; item numbers VR-1558 and VR-740, respectively). 24 hours prior to dosing, HeLa human cervix epithelial cells (ATCC, CCL-2) or MRC-5 human lung fibroblast (ATCC, CCL-171) were plated in 96 well plates at a density of 1.5×10^5/ml in DMEM medium supplemented with 10% fetal bovine serum, 1% HEPES buffer, 1% Penicillin/Streptomycin and 1% non-essential amino acids (all Mediatech, Manassas, Va.). At the day of infection, serially diluted compounds were added to cells and incubated for 4 hours. After the end of the 4 hour pre-incubation period, cells were infected with either coronavirus strain OC43 or 229E. The virus inoculum was selected to cause 80-90% cytopathic effect. Infected cells were incubated for five days at 37° C., 5% CO2. To develop the assay, 100 μl media was replaced with 100 μl CellTiter-Glo® reagent (Promega, Madison, Wis.), and incubated for 10 min at room temperature. Luminescence was measured on a Victor X3 multi-label plate reader. Potential compound cytotoxicity was determined using uninfected parallel cultures.

in vitro [3] = settings: human
Ebola minigenome = assay: microbe, parasite or virus in culture; format: cell-based; settings: Zaire ebolavirus, HEp-2, 48 h, read-out: EBOV EC50, HEp-2 cells, Ebola minigenome, 48 hours
[4] = Cytotoxicity in the coronavirus assay, uninfected parallel cultures; format: cell-based; settings: human, read-out: OC43CoV CC50
Description: as §1

[5] = Toxicity (CC50) in the HRV1B assay; settings: human
[6] = test system: Dengue virus type 2 NG-C or Dengue virus type 4 H241; assay: Dengue antiviral assay (DENV); format: cell-based; settings: Dengue virus, Huh7.5, 144 h, Huh-7.5 cells, five to six days, CellTiter-Glo
Description: The Dengue virus type 2 strain New Guniea C (NG-C) and the Dengue virus type 4 strain H241 were purchased from ATCC (Manassas, Va.; item numbers VR-1584 and VR-1490, respectively). 24 hours prior to dosing, Huh-7.5 cells were plated in 96 well plates at a density of 1.5×10^5/ml in DMEM medium supplemented with 10% fetal bovine serum, 1% HEPES buffer, 1% Penicillin/Streptomycin and 1% non-essential amino acids (all Mediatech, Manassas, Va.). At the day of infection, serially diluted compounds were added to cells and incubated for 4 hours. After the end of the 4 hour pre-incubation period, cells were infected with either Dengue virus type 2 NG-C or Dengue virus type 4 H241. The virus inoculum was selected to cause 80-90% cytopathic effect in five to six days. Infected cells were incubated for five (NG-C) to six (H241) days at 37° C., 5% CO2. To develop the assay, 100 μl media was replaced with 100 μl CellTiter-Glo® reagent (Promega, Madison, Wis.), and incubated for 10 min at room temperature. Luminescence was measured on a Victor X3 multi-label plate reader. Potential compound cytotoxicity was determined using uninfected parallel cultures.

RSV replicon = assay: microbe, parasite or virus in culture; format: cell-based; settings: human respiratory syncytial virus, 168 h, read-out: RSV EC50, HeLa-derived RSV replicon cells, 7 days, luciferase
[7] = Cell viability (CC50) in the RSV replicon assay; settings: human, HeLa-derived cells containing the stable RSV replicon, CellTiter-Glo
in vitro [8] = settings: human; remark: listed apart in the source

| SMILES | CC50 (Huh-7.5 cells) [µM] | CC50 ([1]; DENV CC50, uninfected Huh-7.5 parallel cultures) [µM] | EC50 (Human rhinovirus 1B; read-out: HRV 1B EC50, HeLa-OHIO cells, 4 d, CellTiter-Glo) [µM] | EC50 [2] [µM] | CC50 (in vitro [3]) [µM] | EC50 (Ebola minigenome) [µM] | CC50 at 5 days [4] [µM] | CC50 at 4 d [5] [µM] | EC50 [6] [µM] | EC50 (RSV replicon) [µM] | CC50 at 7 days [7] [µM] | CC50 [1] [µM] | EC50 (Human rhinovirus 1B; HeLa-OHIO cells, 4 d, CellTiter-Glo, read-out: HRV 1B EC50) [µM] | CC50 at 4 d (in vitro [8]) [µM] |
| --- | --- | --- | --- | --- | --- | --- | --- | --- | --- | --- | --- | --- | --- | --- |
| CC(C)CCOC(=O)C[C@H](NP(=O)(OC[C@@]1(F)O[C@@](C#N)(c2ccc3c(N)ncnn23)[C@H](O)[C@@H]1O)Oc1ccccc1)C(=O)OCCC(C)C (stereo partly drawn) [Compound 7, Diisopentyl ((((2S,3S,4R,5R)-5-(4-aminopyrrolo[2,1-f][1,2,4]triazin-7-yl)-5-cyano-2-fluoro-3,4-dihydroxytetrahydrofuran-2-yl)methoxy)(phenoxy)phosphoryl)-L-aspartate] | 21 | 15 | 0.15 | 0.056 | 14 | 0.2 | 13 | 12.4 | 0.0014 | 0.03 | 21 |  |  |  |
| CCC(CC)COC(=O)[C@@H](C)NP(=O)(OC[C@H]1O[C@@](C#N)(c2ccc3c(N)ncnn23)[C@H](O)[C@@H]1O)Oc1ccccc1 (some centres unmarked) [Compound C1, reference compound] |  |  |  | 0.065 | 51 | 0.8 | 69 |  | 0.13 | 0.02 |  | 22 | 0.12 | 6 |
